Results published in US20040137022A1, “Manganese compositions for treating skin vascular tissue and combating skin pallor” (SOCIETE L'OREAL S.A., priority 2000, published 2004).

Test system: endothelium-free isolated blood vessels
Details: concentration 10^−6 M; blood vessel rings contracted with noradrenalin 3×10^−7 M; 37° C.
Experimental: Activity of manganese (manganese gluconate, manganese chloride and manganese carbonate) in an ex vivo model of endothelium-free isolated blood vessels:
Blood vessel rings (or sections) were maintained in a 20 ml tank filled with survival fluid (Krebs Henseleit liquid) maintained at a temperature of 37° C. and oxygenated with a mixture of 95% oxygen and 5% CO2.
The variations in the tension of the blood vessel were then recorded with an initial preloading of several […].
The rings were contracted with noradrenalin at a concentration of 3×10^−7 M. On each preparation, the effect of the test products was evaluated at increasing and cumulative concentrations of from 3×10^−8 M to 10^−5 M.

| Substance | % of relaxation |
| --- | --- |
| manganese carbonate [MnCO3] | 100% |
| manganese chloride [MnCl2] | 100% |
| manganese gluconate | 100% |
